Key:
Format in all cases: cell-based
[1] = system: human uroepithelial cells
[2] = system: human uroepithelial cells; remark: listed apart in the source
[3] = system: human uroepithelial cells; remark: listed apart in the source

With octyl phenol ethoxylate [Triton-X100] the “Typical Results” value [1] was “Increase (Dose response)” and the “increase vs saline in the amount of BoNT/A that permeated the in vitro urothelium” value [2] was 3.6 fold.

With Benzalkonium bromide the “Typical Results” value [1] was “No Effect”.

In the case of Protamine sulfate, the “Typical Results” value [1] is reported as “Inhibited”.

`O=C(O)CN(CCN(CC(=O)O)CC(=O)O)CC(=O)O` [EDTA] was tested, and the “Typical Results” value [1] was “Increase” and the “penetration of fluorescent gelatin, RFU relative to untreated control” value [3] was 300%.

For Nonoxynol 9, the “Typical Results” value [1] was “Increase (Dose response)” and the “increase vs saline in the amount of BoNT/A that permeated the in vitro urothelium” value [2] was 3 fold.

Poly-L-lysine Hydrobromide was tested, and the “Typical Results” value [1] was “Increase (Dose response)”.

`OCc1ccccc1` [Benzyl Alcohol] was tested, and the “Typical Results” value [1] was “Slight Increase (1% at 2”.

For Poly-L-Arginine, the “Typical Results” value [1] was “Inhibited”.

For `CCCCCCCC/C=C\CCCCCCCC(=O)OCCOCC(OCCO)C1OCC(OCCO)C1OCCO` (stereo not shown) [Tween 80], the “Typical Results” value [1] was “Increase (Dose response)”.

In the case of `CCOCCOCCO` [Diethylene glycol mono-ethyl ether], the “Typical Results” value [1] is reported as “No Effect”.
